Experimental data reported in patent US9056840B2, “Coelenterazine analogues and coelenteramide analogues” (JNC Corporation, priority 2010, dated 2015).

Columns and labels:
Type in all cases: physicochemical
apoaequorin [1] = molecular target: T1, apoaequorin (Aequorea victoria, UniProt P07164); assay: Fluorescence spectra of semi-synthetic gFP (coelenteramide analogue + apoaequorin, EDTA); conditions: 10 mM EDTA buffer, excitation 337 nm
T1 construct: purchased Chisso Corporation
Experimental: Semi-synthetic gFP was prepared from recombinant apoaequorin and coelenteramide analogues as follows. In 1 ml of 50 mM Tris-HC 1 (pH 7.6) containing 10 mM EDTA and 1 mM DTT, apoaequorin (0.2 mg) was mixed with 8 μl of a coelenteramide analogue (1 μg/μl in anhydrous methanol). The mixture was allowed to stand 4° C. for 16 hours to prepare semi-synthetic gFP-like protein (hereinafter sometimes simply referred to as “semi-synthetic gFP”).
(§1) The fluorescence spectra were determined as follows. For coelenteramide analogue alone, the fluorescence was measured according to the procedures for semi-synthetic gFP and semi-synthetic BFP described in EXAMPLES 11 and 12, except for in the absence of apoaequorin, using 1 ml of 50 mM Tris-HCl (pH 7.6) containing 10 mM EDTA and 1 mM DTT or 1 ml of 50 mM Tris-HCl (pH 7.6) containing 10 mM CaCl2 and 1 mM DTT, in the final concentration of coelenteramide analogue adjusted to 8 μg/ml. The fluorescence spectra were measured at 25° C. in a quartz cell (10 mm light path length) using a Jasco FP-6500 spectrofluorometer (excitation wavelength: 337 nm, emission/excitation bandwidth: 3 nm; response: 0.5 sec, scan speed, 1000 nm/min).

apoaequorin [2] = molecular target: T1, apoaequorin; assay: Fluorescence spectra of semi-synthetic BFP (coelenteramide analogue + apoaequorin, CaCl2); conditions: 10 mM CaCl2 buffer, excitation 337 nm
Experimental: Semi-synthetic gFP was prepared from recombinant apoaequorin and coelenteramide analogues as follows. In 1 ml of 50 mM Tris-HC 1 (pH 7.6) containing 10 mM CaCl2 and 1 mM DTT, apoaequorin (0.2 mg) was mixed with 8 μl of a coelenteramide analogue (1 μg/μl in anhydrous methanol). The mixture was allowed to stand at 4° C. for 16 hours to prepare semi-synthetic BFP-like protein (hereinafter sometimes simply referred to as “semi-synthetic BFP”).
as §1

[3] = Fluorescence spectra of coelenteramide analogue alone (absence of apoaequorin); conditions: analogue alone 8 μg/ml; for Coelenteramide (Buffer containing CaCl2) Fluorescence intensity (rlu) / Coelenteramide (Buffer containing CaCl2) Maximum fluorescence wavelength λmax (nm): 10 mM CaCl2 buffer pH 7.6, excitation 337 nm; for Coelenteramide (EDTA-containing buffer) Fluorescence intensity (rlu) / Coelenteramide (EDTA-containing buffer) Maximum fluorescence wavelength λmax (nm): 10 mM EDTA buffer pH 7.6, excitation 337 nm
Experimental: as §1

T1 sequence (P07164 other isoform, or with tags, fused parts or gaps with the stated changes): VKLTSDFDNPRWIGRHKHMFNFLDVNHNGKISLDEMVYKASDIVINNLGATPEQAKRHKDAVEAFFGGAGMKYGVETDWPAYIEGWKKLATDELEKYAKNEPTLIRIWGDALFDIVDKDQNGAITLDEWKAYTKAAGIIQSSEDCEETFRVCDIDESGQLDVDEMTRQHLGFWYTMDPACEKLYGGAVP

Compound	Semi-synthetic gFP (EDTA-containing buffer) Fluorescence intensity (rlu) (apoaequorin [1])	Semi-synthetic gFP (EDTA-containing buffer) Maximum fluorescence wavelength λmax (nm) (apoaequorin [1])	Fluorescence intensity (apoaequorin [2]) [rlu]	Semi-synthetic BFP (Buffer containing CaCl2) Maximum fluorescence wavelength λmax (nm) (apoaequorin [2])	Coelenteramide (Buffer containing CaCl2) Fluorescence intensity (rlu) [3] [rlu]	Coelenteramide (Buffer containing CaCl2) Maximum fluorescence wavelength λmax (nm) [3] [nm]	Coelenteramide (EDTA-containing buffer) Fluorescence intensity (rlu) [3] [rlu]	Coelenteramide (EDTA-containing buffer) Maximum fluorescence wavelength λmax (nm) [3] [nm]
O=C(Cc1ccc(O)cc1)Nc1ncc(-c2ccc(O)cc2)nc1-c1ccccc1 [Compound 4a, 2-(4-Hydroxyphenyl)-N-[5-(4-hydroxyphenyl)-3-phenylpyrazin-2-yl]acetamide]	82.9	521.5	148.9	507.5	2.0	467.5	1.9	471.0
O=C(Cc1ccc(O)cc1)Nc1ncc(-c2ccc(O)cc2)nc1/C=C/c1ccccc1 [Compound 4b]	43.2	530.0	52.7	544.5	9.4	494.5	7.1	495.5
C=C(c1ccccc1)c1nc(-c2ccc(O)cc2)cnc1NC(=O)Cc1ccc(O)cc1 [Compound 4c, 2-(4-Hydroxyphenyl)-N-[5-(4-hydroxyphenyl)-3-(1-phenylvinyl)pyrazin-2-yl]acetamide]	32.1	499.0	25.6	492.5	12.4	471.0	11.8	475.5
O=C(Cc1ccc(O)cc1)Nc1ncc(-c2ccc(O)cc2)nc1-c1cccc2ccccc12 [Compound 4d, 2-(4-Hydroxyphenyl)-N-[5-(4-hydroxyphenyl)-3-(naphthalen-1-yl)pyrazin-2-yl]acetamide]	58.8	504.5	98.3	487.0	12.9	463.5	12.4	462.5
O=C(Cc1ccc(O)cc1)Nc1ncc(-c2ccc(O)cc2)nc1-c1ccc2ccccc2c1 [Compound 4e, 2-(4-Hydroxyphenyl)-N-[5-(4-hydroxyphenyl)-3-(naphthalen-2-yl)pyrazin-2-yl]acetamide]	72.6	487.0	85.6	492.5	28.6	478.0	28.9	478.0
O=C(Cc1ccc(O)cc1)Nc1ncc(-c2ccc(O)cc2)nc1-c1cccs1 [Compound 4f, 2-(4-Hydroxyphenyl)-N-[5-(4-hydroxyphenyl)-3-(thiophen-2-yl)pyrazin-2-yl]acetamide]	70.5	536.5	96.4	527.0	2.2	447.0	2.3	448.5
O=C(Cc1ccc(O)cc1)Nc1ncc(-c2ccc(O)cc2)nc1-c1ccsc1 [Compound 4g, 2-(4-Hydroxyphenyl)-N-[5-(4-hydroxyphenyl)-3-(thiophen-3-yl)pyrazin-2-yl]acetamide]	108.5	512.5	195.7	501.5	6.1	470.5	5.5	473.0
O=C(Cc1ccc(O)cc1)Nc1ncc(-c2ccc(O)cc2)nc1-c1cc2ccccc2s1 [Compound 4h, N-[3-(Benzo[b]thiophen-2-yl)-5-(4-hydroxyphenyl)pyrazin-2-yl]-2-(4-hydroxyphenyl) acetamide]			153.3	427.0	101.2	426.5	115.2	426.5
O=C(Cc1ccc(O)cc1)Nc1ncc(-c2ccc(O)cc2)nc1-c1ccc(-c2cccs2)s1 [Compound 4m, N-[3-(2,2′-Bithiophen-5-yl)-5-(4-hydroxyphenyl)pyrazin-2-yl]-2-(4-hydroxyphenyl) acetamide]	163.8	482.5	182.4	457.5				
CN(C)c1ccc(-c2nc(-c3ccc(O)cc3)cnc2NC(=O)Cc2ccc(O)cc2)cc1 [Compound 4n, N-[3-{4-(Dimethylamino)phenyl}-5-(4-hydroxyphenyl)pyrazin-2-yl]-2-(4-hydroxyphenyl)acetamide]	151.5	485.5	231.3	487.5				
O=C(Cc1ccc(O)cc1)Nc1ncc(-c2ccc(O)cc2)nc1Br [Compound 4t, N-[3-Bromo-5-(4-hydroxyphenyl)pyrazin-2-yl]-2-(4-hydroxyphenyl)acetamide]	22.0	482.5			12.1	482.0	11.8	480.5
O=C(Nc1ccc(O)cc1)Nc1ncc(-c2ccc(O)cc2)nc1Cc1ccccc1 [Compound 4u, 1-[3-Benzyl-5-(4-hydroxyphenyl)pyrazin-2-yl]-3-(4-hydroxyphenyl)urea]	11.4	494.5			0.9	445.5	0.7	440.5
O=C(Nc1ncc(-c2ccc(O)cc2)nc1Cc1ccccc1)c1ccc(O)cc1 [Compound 4x, N-[3-Benzyl-5-(4-hydroxyphenyl)pyrazin-2-yl]-4-hydroxybenzamide]			36.8	485.0	1.4	450.0	1.3	449.0
O=C(Nc1ncc(-c2ccc(O)cc2)nc1Cc1ccccc1)c1cccc(O)c1 [Compound 4y, N-[3-Benzyl-5-(4-hydroxyphenyl)pyrazin-2-yl]-3-hydroxybenzamide]	44.8	492.0			1.4	457.0	1.3	456.0
